# Experiments:
# [1] = system: Neisseria gonorrhoeae MS11; assay: Bacterial growth assay; assay type: cell-based; conditions: 20 μM, log growth phase
# Description: Neisseria gonorrhoeae MS11 was cultured in PPM medium (15 g/l Proteose Pepton, 1 g/l soluble starch, 5 g/l NaCl, 4 g/l KH2PO4, 1 g/l K2HPO4, pH 7.5) for liquid culture and on GC plates (BD Difco™ GC Medium Base), both supplemented with 1 % vitamin mix (100 g/l glucose, 10 g/l glutamine, 26 g/l L-cysteine, 100 mg/l carboxylase, 250 mg/l NAD, 500 μl/l Fe(NO3)3, 150 mg/l arginine, 3 mg/l thiamine-HCl, 10 mg/l vitamine B12, 13 mg/l p-amino benzoic acid, 1.1 g/l L-cystine, 1 g/l adenine, 500 mg/l uracil, 30 mg/l guanine). Strains were either cultivated at 37 °C and 220 rpm (liquid medium) or at 37 °C and 5 % CO2 (solid medium).
# Bacteria were grown as described above on solid medium. Prior to substance exposure, bacteria were pre-cultured in liquid medium for at least 2 h. Optical density was determined and a volume equal to an OD550 of 0.2 for Neisseria gonorrhoeae MS11 (equates a final OD550 of 0.04) and an OD600 of 0.2 for Enterococcus faecalis (equates a final OD600 of 0.04) was inoculated into 5 ml of the respective liquid medium. Compound was added at the indicated amounts. […] Samples were incubated for either 10.5 h, until they reached a stationary phase (three measured values in stationary phase) or until they reached an OD of 2.5. Optical density was determined every 0.5 h at OD550 for Neisseria gonorrhoeae MS11 and at OD600 for Enterococcus faecalis. […]
# [2] = system: peripheral nervous system cells (iPSC-derived peripheral neurons); assay: iPSC-derived neuron viability, calcein-AM & H-33342 imaging; assay type: cell-based, human; conditions: 24 h, concentrations up to 100 μM
# Description: The human iPSC (Sigma iPSC0028 (EPITHELIAL-1, #IPSC0028) were maintained and differentiated towards immature dorsal root ganglia neurons according to [Hoelting et al. (2016)] ([Hoelting et al., 2016]). Briefly, a total of 90,000 cells/cm^2 were seeded on Matrigel. The differentiation was initiated with neural differentiation medium (KSR-S; Dulbecco’s modified Eagle’s medium [DMEM/F12] containing 15% knockout serum replacement, 1 × Glutamax, 1 × nonessential amino acids, and 50 μM ß-mercaptoethanol) supplemented with 17.5 ng/ml noggin, 10 μM SB-431642 from day of stem cell differentiation (DoD) DoD0 to DoD5. Starting on DoD2 CHIR99021 (1.5 μM), SU5402 (5 μM) and DAPT (5 μM) were added. […]
# The assays were performed as described previously ([Hoelting et al., 2016]; [Klima et al., 2021]; [Krug et al., 2013]). […] 24 h after treatment the Calcein/Hoechst readout was performed.
# Neurite area (NA) and viability (V) were assessed as described previously ([Stiegler et al., 2011]). […] Image acquisition was performed using an Array-Scan VTI HCS Reader (Cellomics, PA, USA) equipped with a Hamamatsu ORCA-ER camera. […]
compound,measurement,setting,value
"OCC1CSC(c2ccccc2O)=N1 (centres unmarked) [aerugine, 2-[4-(hydroxymethyl)-4,5-dihydro-1,3-thiazol-2-yl]phenol]",viability or growth,[1],not affected in viability or growth
same,effect on cell viability,[2],no effect
